From patent US8993716B2, “Peptides used in the treatment and/or care of the skin, mucous membranes and/or hair and its use in cosmetic or pharmaceutical compositions” (Lipotec, S.A., priority 2009, dated 2015)
Peptide text beside a SMILES is read from it. * marks the point of attachment. Cbz = O=C(OCc1ccccc1)*

How the values were obtained:
[1] = system: Hsp70; assay: Hsp70 synthesis stimulation assay (competitive ELISA); type: cell-based; settings: human keratinocyte cell line, normalized to average basal values
Method: Hsp70 synthesis stimulation was assessed in a human keratinocyte cell line in the presence of the peptides of the invention. The cells were seeded (10^6 cells/6-well plate) and incubated for 24 hours in DMEM, after which the peptides were added to 200 μM in culture medium and were incubated for another 16-24 hours. The proteasome inhibitor MG-132 at 10 μM was used as a positive control and vehicle (culture medium) as a negative control. After the incubation period, the cells were washed with PBS, lysed and centrifuged at 12,000 rpm at 4° C. for 10 min. The supernatants were collected, and the Hsp70 levels were determined by carrying out a competitive ELISA assay following the protocols of the commercial kit (DuoSet IC human/mouse total HSP70 ELISA kit, R&D Systems Inc.)
Hsp70 levels were normalized with regards to the average basal values.

[2] = system: human keratinocytes; type: cell-based; settings: 2 h, 0.1 mM
Method: The human keratinocytes were maintained in culture for 24 hours in 96-well plates for monolayer formation and the cells were pre-incubated in darkness with 0.1 mM of Ac-L-His-L-Pro-L-Leu-L-Arg-OH, Ac-L-His-L-Leu-L-Leu-L-Arg-OH in culture medium or with vehicle (culture medium) for 2 hours at 37° C. Subsequently the cells were radiated with UVB at an energy of 800 J/m^2. A control plate with vehicle was maintained in the dark without radiation for the same time at room temperature. After the irradiation period the cells' medium was replaced by a fresh medium and the cells were incubated for additional 24 hours. Cell viability was determined by the MTT method, adding 5 mg/mL of the MTT solution to each well and incubating the plate for 4 hours at 37° C., after which time the medium was removed, 100μL of DMSO was added and the plate was stirred at room temperature for 15 min. The optical density of each well was measured at 570 nm in a spectrophotometer.

| SMILES | Hsp70 increase ([1]; positive control MG-132 at 10 μM) [%] | CELL VIABILITY [2] [%] | Hsp70 increase ([1]; peptide 200 μM, 16-24 hours) [%] |
| --- | --- | --- | --- |
| CC(C)C[C@@H](C=O)NC(=O)[C@H](CC(C)C)NC(=O)[C@H](CC(C)C)NC(=O)OCc1ccccc1 [MG-132, reference compound] (Cbz-Leu-Leu-Leu-aldehyde) | 294 | – | – |
| CC(=O)N[C@@H](Cc1c[nH]cn1)C(=O)N1CCC[C@H]1C(=O)N[C@@H](CC(C)C)C(=O)N[C@@H](CCCNC(=N)N)C(=O)O [Ac-L-His-L-Pro-L-Leu-L-Arg-OH] (Ac-HPLR-OH) | – | 97.2 | 42 |
| CC(=O)N[C@@H](Cc1c[nH]cn1)C(=O)N[C@@H](CC(C)C)C(=O)N[C@@H](CC(C)C)C(=O)N[C@@H](CCCNC(=N)N)C(=O)O [Ac-L-His-L-Leu-L-Leu-L-Arg-OH] (Ac-HLLR-OH) | – | 87.7 | 28 |
